In article PMC5458252, “Niclosamide is a potential therapeutic for familial adenomatosis polyposis by disrupting Axin-GSK3 interaction” (Oncotarget, 2017):

Biological target: T1, GSK3β (Homo sapiens, UniProt P49841)
T1 construct: gene GSK3B; His-tagged recombinant GSK3β from sf9 insect cells
Assay: SPR (ProteOn XPR36, immobilized recombinant GSK3β); supported by competition with FITC-Axin peptide (AFF assay)
Assay type: binding
Text: SPR (ProteOn XPR36, immobilized recombinant GSK3β); supported by competition with FITC-Axin peptide (AFF assay) on GSK3β | wild type Axin peptide or niclosamide directly binds to GSK3, the equilibrium dissociation constant yielding a KD

T1 sequence (P49841 whole entry): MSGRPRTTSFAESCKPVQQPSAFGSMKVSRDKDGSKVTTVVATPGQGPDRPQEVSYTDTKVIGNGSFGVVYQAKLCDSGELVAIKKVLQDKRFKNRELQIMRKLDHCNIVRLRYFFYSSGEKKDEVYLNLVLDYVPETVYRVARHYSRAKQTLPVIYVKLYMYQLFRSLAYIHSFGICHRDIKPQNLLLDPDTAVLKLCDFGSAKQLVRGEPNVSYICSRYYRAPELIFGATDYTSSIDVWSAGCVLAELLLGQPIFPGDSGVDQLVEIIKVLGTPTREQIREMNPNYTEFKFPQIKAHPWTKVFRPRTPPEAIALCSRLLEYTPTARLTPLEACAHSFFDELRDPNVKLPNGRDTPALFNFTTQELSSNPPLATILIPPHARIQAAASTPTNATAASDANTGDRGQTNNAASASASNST

Kd: 34.5 µM
Structure (SMILES): O=C(Nc1ccc([N+](=O)[O-])cc1Cl)c1cc(Cl)ccc1O [Niclosamide]
